One may read the IC50 as the midpoint of a concentration-inhibition curve. Low readings indicate higher potency, high ones lower potency.

The target in the first experiment is T1, human TREK-1 (Homo sapiens, UniProt O95069).
T1 construct: expressed in transfected cells
T1 sequence (O95069 1-426): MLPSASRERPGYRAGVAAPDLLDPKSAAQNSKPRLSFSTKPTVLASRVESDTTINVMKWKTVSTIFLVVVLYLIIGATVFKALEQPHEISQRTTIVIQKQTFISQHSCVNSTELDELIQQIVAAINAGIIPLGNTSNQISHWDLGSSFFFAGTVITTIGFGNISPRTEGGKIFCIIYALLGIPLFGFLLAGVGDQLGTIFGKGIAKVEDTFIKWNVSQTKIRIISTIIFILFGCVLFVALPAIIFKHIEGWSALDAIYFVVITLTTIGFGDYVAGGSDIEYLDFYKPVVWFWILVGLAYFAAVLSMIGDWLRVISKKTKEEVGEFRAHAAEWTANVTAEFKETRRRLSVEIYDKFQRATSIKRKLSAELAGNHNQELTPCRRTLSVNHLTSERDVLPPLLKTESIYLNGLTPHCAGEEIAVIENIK
In words: TREK-1 Thallium (Tl+) flux assay, Method 1. The experiment is classed as cell-based. As to conditions: TREK-1 Thallium (Tl+) flux assay, Method 1. The essentials:
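Readout: Thallos fluorescence ratio, taken 25 s post-thallium relative to the pre-thallium baseline average, then converted to % inhibition. Cells were CHO-K1 stably expressing human TREK-1, dye-loaded and exposed to test compound (vehicle 0.3% DMSO) for 10 min prior to thallium stimulation.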
The molecule `COc1cc(-c2cnc(NC(=O)c3c(Cl)cnn3C3CCN(C(=O)OC(C)(C)C)CC3)c(C)c2)ccn1` [Compound 437, tert-butyl 4-(4-chloro-5-((2′-methoxy-5-methyl-[3,4′-bipyridin]-6-yl)carbamoyl)-1H-pyrazol-1-yl)piperidine-1-carboxylate] displayed an IC50 of 9960 nM.
The molecule `CCC(=O)N1CCC(n2ncc(Cl)c2C(=O)Nc2ccc(OCc3ccccc3)cc2C)CC1` [Compound 397, N-(4-(benzyloxy)-2-methylphenyl)-4-chloro-1-(1-propionylpiperidin-4-yl)-1H-pyrazole-5-carboxamide] showed an IC50 of 1680 nM.
Same read-out and setting: under `COc1ccc(-c2cnc(NC(=O)c3c(Cl)cnn3C3CCN(C(C)=O)CC3)c(C)c2)cc1Cl` [Compound 434, 1-(1-acetylpiperidin-4-yl)-4-chloro-N-(5-(3-chloro-4-methoxyphenyl)-3-methylpyridin-2-yl)-1H-pyrazole-5-carboxamide] stands 7430 nM.

Staying with this experiment, now noted: TREK-1 Thallium (Tl+) flux assay; no *^12 (Method 2) mark on these rows.
The molecule `CC(=O)N1CCC(F)(Cn2ncc(Cl)c2C(=O)Nc2ncc(C#Cc3ccccc3)cc2F)CC1` [Compound 228, 1-((1-acetyl-4-fluoropiperidin-4-yl)methyl)-4-chloro-N-(3-fluoro-5-(phenylethynyl)pyridin-2-yl)-1H-pyrazole-5-carboxamide] yielded an IC50 of 350 nM.
Still for that read-out and setting: under `CC(=O)N1C[C@H]2C[C@H](n3ncc(Cl)c3C(=O)Nc3ncc(C#Cc4cccc(F)c4)cc3C)C[C@H]2C1` [Compound 195, 1-[(3aR,5s,6aS)-2-acetyloctahydrocyclopenta[c]pyrrol-5-yl]-4-chloro-N-{5-[(3-fluorophenyl)ethynyl]-3-methylpyridin-2-yl}-1H-pyrazole-5-carboxamide] stands 300 nM; under `CC(C)(C)C(=O)N1CCC(n2ncc(Cl)c2C(=O)Nc2ncc(C#Cc3cccs3)cc2F)CC1` [Compound 247, 4-chloro-N-(3-fluoro-5-(thiophen-2-ylethynyl)pyridin-2-yl)-1-(1-pivaloylpiperidin-4-yl)-1H-pyrazole-5-carboxamide], 390 nM; under `Cc1cc(OCc2ccccc2)ccc1NC(=O)c1c(Cl)cnn1[C@H]1CC[C@@H](NC(=O)C2CC2)CC1` [Compound 385, N-(4-(benzyloxy)-2-methylphenyl)-4-chloro-1-(cis-4-(cyclopropanecarboxamido)cyclohexyl)-1H-pyrazole-5-carboxamide], 830 nM.
Molecule `Cc1cc(C#Cc2cccc(F)c2)cnc1NC(=O)c1c(Cl)cnn1[C@H]1CCOC1` [Compound 333, (S)-4-chloro-N-(5-((3-fluorophenyl)ethynyl)-3-methylpyridin-2-yl)-1-(tetrahydrofuran-3-yl)-1H-pyrazole-5-carboxamide] registered an IC50 of 670 nM.
Still for that read-out and setting: in the case of `Cc1cc(C#Cc2ccccc2)cnc1NC(=O)c1c(Cl)cnn1[C@H]1C[C@@H]2CN(C(=O)C3CC3)C[C@@H]2C1` [Compound 282, 4-chloro-1-[(3aR,5s,6aS)-2-(cyclopropanecarbonyl)octahydro-cyclopenta[c]pyrrol-5-yl]-N-[3-methyl-5-(phenylethynyl)pyridin-2-yl]-1H-pyrazole-5-carboxamide] it was 490 nM; in that of `CC(C)(C#N)Cn1ncc(Cl)c1C(=O)Nc1ncc(C#Cc2ccccc2)cc1F` [Compound 234, 4-chloro-1-(2-cyano-2-methylpropyl)-N-(3-fluoro-5-(phenylethynyl)pyridin-2-yl)-1H-pyrazole-5-carboxamide], 360 nM; in that of `CC(=O)N1CCC(Cn2ncc(Cl)c2C(=O)Nc2ncc(C#Cc3ccc(F)cc3)cc2C)CC1` [Compound 256, 1-((1-acetylpiperidin-4-yl)methyl)-4-chloro-N-(5-((4-fluorophenyl)ethynyl)-3-methylpyridin-2-yl)-1H-pyrazole-5-carboxamide], 420 nM.
Still for that read-out and setting: in the case of `Cc1cc(C#Cc2ccccc2)cnc1NC(=O)c1c(Cl)cnn1[C@H]1C[C@@H]2CN(C(=O)C(C)(C)C)C[C@@H]2C1` [Compound 352, 4-chloro-1-[(3aR,5s,6aS)-2-(2,2-dimethylpropanoyl)octahydrocyclopenta [c]pyrrol-5-yl]-N-[3-methyl-5-(phenylethynyl)pyridin-2-yl]-1H-pyrazole-5-carboxamide] it was 840 nM; in that of `O=C(Nc1ncc(C#Cc2ccc(F)cc2)cc1F)c1c(Cl)cnn1CC1CCOCC1` [Compound 233, 4-chloro-N-(3-fluoro-5-((4-fluorophenyl)ethynyl)pyridin-2-yl)-1-((tetrahydro-2H-pyran-4-yl)methyl)-1H-pyrazole-5-carboxamide], 360 nM; in that of `Cc1cc(C#Cc2cccs2)cnc1NC(=O)c1c(Cl)cnn1[C@H]1C[C@@H]2CN(C(=O)C3CC3)C[C@@H]2C1` [Compound 204, 4-chloro-1-[(3aR,5s,6aS)-2-(cyclopropanecarbonyl)octahydrocyclo-penta[c]pyrrol-5-yl]-N-{3-methyl-5-[(thiophen-2-yl)ethynyl]pyridin-2-yl}-1H-pyrazole-5-carboxamide], 310 nM.
On the same count and under the same terms, in the case of `Cc1cc(C#Cc2ccccc2)cnc1NC(=O)c1c(Cl)cnn1C[C@@H]1COCCO1` [Compound 338, (R)-1-((1,4-dioxan-2-yl)methyl)-4-chloro-N-(3-methyl-5-(phenylethynyl)pyridin-2-yl)-1H-pyrazole-5-carboxamide] it was 730 nM; in that of `Cc1cc(C#Cc2ccccc2)cc(F)c1NC(=O)c1c(Cl)cnn1C[C@H]1COCCO1` [Compound 285, (S)-1-((1,4-dioxan-2-yl)methyl)-4-chloro-N-(2-fluoro-6-methyl-4-(phenylethynyl)phenyl)-1H-pyrazole-5-carboxamide], 500 nM.
As to `Cc1cc(C#Cc2ccccc2)cnc1NC(=O)c1c(Cl)cnn1C[C@H]1C[C@@H]2CC[C@H]1O2` (racemic) [Compound 259, 4-chloro-N-[3-methyl-5-(phenylethynyl)pyridin-2-yl]-1-{[(1S,2S,4R)-7-oxabicyclo[2.2.1]heptan-2-yl]methyl}-1H-pyrazole-5-carboxamide and 4-chloro-N-[3-methyl-5-(phenylethynyl)pyridin-2-yl]-1-{[(1R,2R,4S)-7-oxabicyclo[2.2.1]heptan-2-yl]methyl}-1H-pyrazole-5-carboxamide], inhibition was half-maximal at 430 nM (IC50).
Same read-out and setting: in the case of `Cc1cc(C#Cc2ccc(F)cc2)cnc1NC(=O)c1c(Cl)cnn1C[C@H]1CCCN(C(=O)C(C)C)C1` [Compound 320, (S)-4-chloro-N-(5-((4-fluorophenyl)ethynyl)-3-methylpyridin-2-yl)-1-((1-isobutyrylpiperidin-3-yl)methyl)-1H-pyrazole-5-carboxamide] it was 620 nM.

Staying with this experiment, now noted: TREK-1 Thallium (Tl+) flux assay; values without footnote *12 are Method 1.
Consider `O=C(Nc1ncc(C#Cc2ccccc2)cc1F)c1c(Cl)cnn1CC1CCOCC1` [Compound 68, 4-chloro-N-(3-fluoro-5-(phenylethynyl)pyridin-2-yl)-1-((tetrahydro-2H-pyran-4-yl)methyl)-1H-pyrazole-5-carboxamide], for which 160 nM corresponded to half-maximal inhibition (IC50).
Still for that read-out and setting: in the case of `CC(=O)N1CCC(n2ncc(Cl)c2C(=O)Nc2ncc(C#Cc3cccs3)cc2C)CC1` [Compound 19, 1-(1-acetylpiperidin-4-yl)-4-chloro-N-(3-methyl-5-(thiophen-2-ylethynyl)pyridin-2-yl)-1H-pyrazole-5-carboxamide] it was 60 nM; in that of `CC(=O)N1CC2(CC(n3ncc(Cl)c3C(=O)Nc3ncc(C#Cc4ccccc4)cc3F)C2)C1` [Compound 113, 1-(2-acetyl-2-azaspiro[3.3]heptan-6-yl)-4-chloro-N-(3-fluoro-5-(phenylethynyl)pyridin-2-yl)-1H-pyrazole-5-carboxamide], 200 nM.
The same measure, in the same setting: under `CC(=O)N1CCC(C)(Cn2ncc(Cl)c2C(=O)Nc2ncc(C#Cc3ccccc3)cc2C)CC1` [Compound 166, 1-((1-acetyl-4-methylpiperidin-4-yl)methyl)-4-chloro-N-(3-methyl-5-(phenylethynyl)pyridin-2-yl)-1H-pyrazole-5-carboxamide] stands 260 nM; under `Cc1cc(C#Cc2ccccc2)cnc1NC(=O)c1c(Cl)cnn1C(C)C1CCN(C(=O)C(C)C)CC1` (centres unmarked) [Compound 28, 4-chloro-1-(1-(1-isobutyrylpiperidin-4-yl)ethyl)-N-(3-methyl-5-(phenylethynyl)pyridin-2-yl)-1H-pyrazole-5-carboxamide], 90 nM.
The same measure, in the same setting: under `Cc1cc(C#Cc2ccccc2)cnc1NC(=O)c1c(Cl)cnn1-c1ccc2c(cnn2C)c1` [Compound 22, 4-chloro-1-(1-methyl-1H-indazol-5-yl)-N-(3-methyl-5-(phenylethynyl)pyridin-2-yl)-1H-pyrazole-5-carboxamide] stands 80 nM; under `Cc1cc(C#Cc2ccc(F)cc2)cnc1NC(=O)c1c(Cl)cnn1C1CC2(C1)CN(C(=O)C(C)C)C2` [Compound 116, 4-chloro-N-(5-((4-fluorophenyl)ethynyl)-3-methylpyridin-2-yl)-1-(2-isobutyryl-2-azaspiro[3.3]heptan-6-yl)-1H-pyrazole-5-carboxamide], 200 nM.
Consider `CC(=O)N1CCC(C#N)(Cn2ncc(Cl)c2C(=O)Nc2ncc(C#Cc3ccccc3)cc2C)CC1` [Compound 84, 1-((1-acetyl-4-cyanopiperidin-4-yl)methyl)-4-chloro-N-(3-methyl-5-(phenylethynyl)pyridin-2-yl)-1H-pyrazole-5-carboxamide], for which the midpoint of inhibition, the IC50, lay at 160 nM.

For the origin of these results see patent US20240182445A1 (ONO PHARMACEUTICAL CO., LTD., priority 2019, published 2024).
